Experimental data taken from paper PMC6212833 (mBio, 2018).
pIC50: −log10 of the molar value. Where two headings read alike, the source gives them in different places.

Legend:
[1] = Cytotoxicity dose response, Hep-G2; assay type: cell-based; conditions: human, Hep-G2 (liver) cells, unit not given in Table S3, drug concentrations in µM, read-out: CC50 Hep-G2 cell line
Protocol: (§1) B. mandrillaris trophozoites were seeded at 4,000 amoebae per well into opaque and clear-bottom 96-well plates (Corning). Homogenous populations of B. mandrillaris cysts generated by galactose induction were seeded at 4,000 amoebae per well into opaque 96-well plates. HFF-1 (fibroblast), H4 (glial), U87 (glial), HEK-293T (kidney), and Hep-G2 (liver) cells were seeded at 3,000 cells per well in opaque 96-well plates 24 h prior to addition of drug. Stocks of nitroxoline (Selleck Chemicals) were dissolved in 100% DMSO at 10 mM. Stocks of azithromycin (Selleck Chemicals), pentamidine isethionate (Selleck Chemicals), and miltefosine (Selleck Chemicals) were dissolved in water at 10 mM. Drug stocks were serially diluted in water to generate 12-point dilution series, which were then used to treat assay wells containing B. mandrillaris or human cells at final concentrations ranging from 0.39 µM to 400 µM in 100-µl total well volumes. Control wells were treated with vehicle (DMSO or water) at concentrations corresponding to the final vehicle concentrations in each drug dilution series. After incubation for 72 h, 50 µl of CTG was added to all assay wells. Luminescence was measured with a Promega GloMax-Multi+ plate reader 2, 4, and […] after CTG addition. All dose-response experiments were performed with at least three independent biological replicates. IC50 values were determined as previously described. To quantify encystment under treated and untreated conditions, amoebae in individual assay wells were resuspended thoroughly and the number of cysts and number of trophozoites in 10-µl samples were counted by the use of a hemocytometer (SKC, Inc.). Cysts and trophozoites are morphologically distinct, making them simple to distinguish with bright-field microscopy (example images are shown in Fig. S1 in the supplemental material). Encystment assays were performed with three independent biological replicates.

[2] = tested on: B. mandrillaris trophozoites; experiment: Drug combination dose matrices, trophozoite viability (EOHSA model); assay type: cell-based, Balamuthia mandrillaris; conditions: 72 h
Protocol: Experiments measuring the effect of drug combinations were carried out similarly to the dose-response experiments described above. B. mandrillaris trophozoites were seeded into opaque 96-well plates (Corning) at a density of 4,000 amoebae per well and then treated with concentrations of nitroxoline that differed across the rows of each plate and with concentrations of either miltefosine or pentamidine isethionate that differed down the columns to generate 7-by-7 dose combination matrices. Final drug concentrations ranged from 0.5 to 10 µM, from 10 to 100 µM, and from 1 to 100 µM for nitroxoline, miltefosine, and pentamidine isethionate, respectively. After incubation with drug or vehicle was performed for 72 h, CTG was added to all assay wells and luminescence was measured with a Promega Glomax-Multi+ plate reader. The percent effect of each drug combination was calculated as the reduction in luminescence value relative to vehicle-only controls. The additive effect of drug combinations was assessed using the excess over highest single agent (EOHSA) model ([76], [77]). […] Drug combination experiments were performed with three independent replicates.

B. mandrillaris [3] = experiment: Recrudescence assay on HFF-1 monolayer after drug treatment; assay type: cell-based, Balamuthia mandrillaris
[4] = Cytotoxicity dose response, HFF-1; assay type: cell-based; conditions: human, HFF-1 (fibroblast) cells, unit not given in Table S3, drug concentrations in µM, read-out: CC50 HFF-1 cell line
Protocol: as §1

gliomas = tested on: gliomas; set-up: method as in PMID 25074541; conditions: systemically delivered; cited from earlier work
[5] = tested on: H4 human neuroglioma cells; experiment: Secondary screening dose response, toxicity to H4 cells; assay type: cell-based; conditions: Homo sapiens; 72 h; approximated from dose-response curves
[6] = tested on: B. mandrillaris trophozoites; experiment: Nitroxoline structure-activity relationship dose response (CellTiter Glo); assay type: cell-based, Balamuthia mandrillaris; conditions: Balamuthia mandrillaris, 72 h, 8-point dose response in triplicate; read-out: IC50
[7] = Cytotoxicity dose response, HEK-293T; assay type: cell-based; conditions: human, HEK-293T (kidney) cells, unit not given in Table S3, drug concentrations in µM, read-out: CC50 HEK-293T cell line
Protocol: as §1

[8] = tested on: B. mandrillaris trophozoites; experiment: Secondary screening dose response, B. mandrillaris trophozoites; assay type: cell-based, Balamuthia mandrillaris; conditions: Balamuthia mandrillaris, 72 h, read-out: B. mandrillaris IC50
Protocol: (§2) Secondary screening of hit compounds consisted of dose-response experiments to measure the toxicity of each compound to B. mandrillaris trophozoites, HFF-1 human fibroblast cells, and H4 human neuroglioma cells. Four 384-well plates were prepared prior to addition of drug as follows: one opaque plate (Corning) seeded with 3,000 HFF-1 cells per well in 60 µl complete media, one opaque plate seeded with 2,000 H4 cells per well in 60 µl complete media, one opaque plate containing 30 µl axenic media, and one clear plate (Corning) containing 30 µl axenic media. Opaque plates were used to measure the viability of trophozoites in the CTG assay, and clear plates were used for microscopic examination of cyst formation. HFF-1 and H4 plates were seeded 24 h prior to drug addition. The selected primary screen hits were added from 10 mM DMSO stocks into wells of all four test plates to reach final concentrations ranging from 0.06 µM to 30 µM (10 concentrations, 2-fold serial dilution). Negative-control wells received concentrations of DMSO corresponding to the amount of DMSO in each tested drug well (reaching a maximum of 0.3% DMSO). B. mandrillaris trophozoites were resuspended in axenic media and added to the plates containing drug dilutions in axenic media at a density of 3,000 amoebae per well in a final volume of 60 µl media. All plates were incubated for 72 h. Throughout the incubation period, the clear-bottom B. mandrillaris plate was monitored for large-scale changes to population encystment in response to drug treatment. After the 72-h incubation, 30 µl of CTG reagent was added to all wells of the opaque assay plates and luminescence was measured with a Promega GloMax-Multi+ plate reader at 2, 4, and 8 h after CTG addition.

B. mandrillaris [9] = experiment: Encystment assay, counts of cysts and trophozoites; assay type: cell-based, Balamuthia mandrillaris; conditions: 72 h of treatment with different drug concentrations
Protocol: as §1

[10] = Cytotoxicity dose response, U87; assay type: cell-based; conditions: human, U87 (glial) cells, unit not given in Table S3, drug concentrations in µM, read-out: CC50 U87 cell line
Protocol: as §1

[11] = Cytotoxicity dose response, H4; assay type: cell-based; conditions: human, H4 (glial) cells, unit not given in Table S3, drug concentrations in µM, read-out: CC50 H4 cell line
Protocol: as §1

[12] = Cytotoxicity, mean of all cell lines; assay type: cell-based; conditions: human, U87, H4, HEK-293T, HFF-1 and Hep-G2 cell lines (mean of all), unit inferred
Protocol: as §1

[13] = tested on: B. mandrillaris trophozoites; experiment: microbe, parasite or virus in culture; assay type: cell-based, Balamuthia mandrillaris; conditions: Balamuthia mandrillaris, 72 h
[14] = set-up: method as in PMID 3309832, PMID 118941, PMID 7251741; conditions: adults, 600 to 800 mg/day, cited from earlier work
[15] = tested on: B. mandrillaris trophozoites; experiment: Side-by-side dose response, trophozoite viability; assay type: cell-based, Balamuthia mandrillaris; conditions: 72 h
Protocol: as §1

[16] = tested on: HFF-1 human fibroblast cells; experiment: Secondary screening dose response, toxicity to HFF-1 cells; assay type: cell-based; conditions: Homo sapiens, HFF-1; 72 h; approximated from dose-response curves; read-out: HFF1 IC50
Protocol: as §2

B. mandrillaris cysts = experiment: Dose response, viability of preformed galactose-induced cysts; assay type: cell-based, Balamuthia mandrillaris; conditions: 72 h
Protocol: Following the findings of a previous study, encystment of B. mandrillaris was induced by galactose exposure ([74]). B. mandrillaris trophozoites were grown to log phase in axenic media, and galactose was added to reach a final concentration of 12% (vol/vol). Amoebae were cultured in the induction medium until trophozoites were no longer observed (approximately 10 days). Galactose-induced cysts transition back to trophozoites after approximately 3 days of incubation in galactose-free axenic medium. Therefore, all assays with cysts were completed in the induction medium. […] All incubation steps for B. mandrillaris growth were carried out at 37°C with 5% CO2.
as §1

[17] = tested on: B. mandrillaris trophozoites; experiment: Primary human brain tissue explant infection model; assay type: cell-based, Balamuthia mandrillaris; conditions: 35 μM simultaneously with inoculation, removed at 20 h, evaluated at 96 h

O=[N+]([O-])c1ccc(O)c2ncccc12 [Nitroxoline, 8-hydroxy-5-nitroquinoline]
CC50 at 72 h [1]: 9.3 µM | Percent inhibition of B. mandrillaris viability ([2]; Fig S2A, nitroxoline 0.5 µM alone): -4% | Percent inhibition of B. mandrillaris viability ([2]; Fig S2A, nitroxoline 2 µM alone): 28% | Percent inhibition of B. mandrillaris viability ([2]; Fig S2A, nitroxoline 2.5 µM alone): 31% | Percent inhibition of B. mandrillaris viability ([2]; Fig S2A, nitroxoline 3 µM alone): 34% | Percent inhibition of B. mandrillaris viability ([2]; Fig S2A, nitroxoline 5 µM alone): 92% | Percent inhibition of B. mandrillaris viability ([2]; Fig S2A, nitroxoline 10 µM alone): 93% | Percent inhibition of B. mandrillaris viability ([2]; Fig S2B, nitroxoline 0.5 µM alone): 0% | Percent inhibition of B. mandrillaris viability ([2]; Fig S2B, nitroxoline 2 µM alone): 28% | Percent inhibition of B. mandrillaris viability ([2]; Fig S2B, nitroxoline 2.5 µM alone): 33% | Percent inhibition of B. mandrillaris viability ([2]; Fig S2B, nitroxoline 3 µM alone): 32% | Percent inhibition of B. mandrillaris viability ([2]; Fig S2B, nitroxoline 5 µM alone): 91% | Percent inhibition of B. mandrillaris viability ([2]; Fig S2B, nitroxoline 10 µM alone): 92% | Mean no. of days for host cell clearance ± SE (B. mandrillaris [3]; 3.5 µM for 72 h, then drug-free coculture with HFF-1, 28-day experiment): 15.33 ± 0.67 days | Mean no. of days for host cell clearance ± SE (B. mandrillaris [3]; 7 µM for 72 h, then drug-free coculture with HFF-1, 28-day experiment): 19 ± 0.58 days | Mean no. of days for host cell clearance ± SE (B. mandrillaris [3]; 14 µM for 72 h, then drug-free coculture with HFF-1, 28-day experiment): 22 ± 2.08 days | Mean no. of days for host cell clearance ± SE (B. mandrillaris [3]; 28 µM for 72 h, then drug-free coculture with HFF-1, NRT = no recovery of trophozoites or host cell destruction observed through 28 days): NRT^a | concentration that completely eliminated B. mandrillaris populations (B. mandrillaris [3]; 72 h treatment, no recovery after 28 days of coculture): 28 µM | CC50 at 72 h [4]: 51.8 µM | efficacy against gliomas (gliomas): exhibits efficacy against gliomas in mice | pIC50 [5]: 5.15 | pIC50 [6]: 5.32 | CC50 at 72 h [7]: 4.9 µM | pIC50 [8]: 4.96 | encystment response (B. mandrillaris [9]): increase in both the total number and the proportion of cysts | CC50 at 72 h [10]: 24.9 µM | CC50 at 72 h [11]: 5.6 µM | CC50 at 72 h [12]: 19.3 µM | inhibition at 20 µM [13]: 100% | maximal plasma concentrations (Cmax) [14]: ~5600 ng/mL | Cmax ([14]; read-out: maximal plasma concentrations (Cmax)): ~30 µM | IC99, B. mandrillaris trophozoite viability [15]: 7.54 µM | pIC50 ([15]; Balamuthia mandrillaris, read-out: IC50, B. mandrillaris trophozoites, 72 h): 5.55 | pIC50 ([15]; read-out: IC50, B. mandrillaris trophozoites): 5.55 | pIC50 [16]: < 4.52 | pIC50 (B. mandrillaris cysts; Balamuthia mandrillaris, read-out: IC50, B. mandrillaris cysts, preformed cysts, 12% galactose induction medium, 72 h): 4.81 | pIC50 (B. mandrillaris cysts; preformed cysts, 12% galactose induction medium, read-out: IC50, B. mandrillaris cysts): 4.81 | protection of human brain tissue explants [17]: do not show signs of tissue damage or loss of cell density
